Reference: PMC7083880 (Nature Communications, 2020)
Where two headings read alike, the source gives them in different places.

Key:
[1] = test system: Calu-6 cell tumors in nude mice; assay: In vivo established Calu-6 tumors: tumor size and p53 western blot; set-up: species or system mouse
Description: (§1) For each experimental condition, 7 mice were used. b Fourteen nude mice were injected with Calu-6 cells to promote tumor development. […] The arrow indicates the starting time of the exposure to DMSO or DAP. For each experimental condition, 7 mice were used. […] GAPDH was used as loading control. A molecular weight marker is indicated to the left of the gel. The results presented in this figure are representative of two independent experiments. p-values (p) were calculated using Student’s t-test. Source data are provided as a Source Data file.
(§2) Next, the capacity of DAP to correct UGA nonsense mutations in vivo was assessed in a mouse model. Four-week-old immunodeficient nude mice were injected with an identical number of Calu-6 cells carrying a UGA nonsense mutation in the TP53 gene, of HCC-GR6 cells having a wild-type TP53 gene or of p53-null 4T1 cells. […] The slower growth of Calu-6-cell-derived tumors in DAP-treated mice is thus likely due to rescue of p53 protein synthesis in these tumors, as expected on the basis of our cell culture experiments and as observed after western-blotting applied to protein extracts of tumors from DAP-treated mice (Supplementary Fig. 8B). Because of the small size of the Calu-6 tumors in DAP-treated mice and thus the high probability of collecting mouse cells upon tumor excision, quantitation of p53 was done in another experiment.
(§3) To initiate tumor growth, 6-week-old nude mice received subcutaneously 10 million cells suspended in PBS. […] Tumors were measured three times weekly for 5 weeks to determine the tumor volume by the following formula: l (mm) × L (mm) × L (mm). The tumors were then collected and a fraction was used for western blot analysis after protein extraction. All in vivo experiments complied with all relevant ethical regulations for animal testing and research and were authorized by the Ethic Committee 075 under the number 12971-2018010815336092.

[2] = test system: Calu-6 cell tumors (TP53 UGA nonsense mutation) in nude mice; type: in vivo; set-up: tumor size, Average: unit not given here
Description: as §1, §2, §3

[3] = test system: HeLa cells; assay: Toxicity assay: adenylate kinase activity in culture medium; type: cell-based, human
Description: The toxicity assay was performed 24 h after starting cell treatment. The cell culture supernatant was centrifuged at 6000×g for 10 min to pellet cells and cell debris. One-twentieth of the supernatant was then used to measure adenylate kinase activity according to the supplier’s protocol (Lonza Biosciences, Basel, Switzerland).

[4] = test system: tRNA 2′-O-methylation in HeLa cells; assay: tRNA 2′-O-methylation analysis by RiboMethSeq; type: cell-based, human; conditions: 25 µM DAP, 24 h
Source text: Firefly luciferase from HEK293FT cells transfected with the Fluc-int-UGA construct was immunoprecipitated and digested with trypsin. The MS/MS spectrum of the peptide containing the PTC position and the sequence determination are shown. The upper red and blue sequences indicate the amino acids validated, respectively, by detection of Nter and Cter peptide fragments (b and y ion series). Peptide fragments y6 and y7 clearly identify tryptophan (W) at the PTC position. The black peaks correspond to non-attributed mass-to-charge ratio (m/z) values. […] Readthrough efficiency was determined by measuring luciferase activity in HeLa cells co-transfected with the firefly luciferase construct described in Fig. 1b and with increasing amounts of an expression vector for either FTSJ1 or CTU1 (0.5, 1, or 2 µg). The empty expression vector (E.v.) was used as control. […] The experiment was performed twice and the results of both experiments (Exp1 and Exp2) are shown. c Western blot analysis of FTSJ1 and CTU1. d 2′-O-methylation analysis of tRNA^Trp, tRNA^SER, and tRNA^GLN by RiboMethSeq. […] A molecular weight marker is indicated to the left of each gel. p-values (p) were calculated using Student’s t-test. Source data are provided as a Source Data file.
HeLa cells were incubated with DMSO or DAP before extraction of small RNAs (which include tRNAs). RiboMethSeq analysis of human tRNAs was then performed. […] Although the human targets of FTSJ1 remain poorly characterized, modification of Cm34 in tRNA^Trp has been attributed to FTSJ1 (ref. [41]). […] This is consistent with DAP-dependent inhibition of FTSJ1 activity. The third hit was 2′-O-methylation of tRNA^Ser at position Gm18, attributed to TARBP1 activity.
The detailed protocol and a description of the RiboMethSeq assay are provided elsewhere.

[5] = test system: Calu-6 cell tumors in nude mice; assay: In vivo established Calu-6 tumors: tumor size and p53 western blot; set-up: species or system mouse; conditions: DAP for 1 week after tumor size about 0.4 cm^3
[6] = test system: HeLa cells; assay: 2D differential gel electrophoresis (2D-DIGE) of whole proteome; type: cell-based, human
[7] = DAP stability assay in human liver S9; type: in vitro ADME; conditions: pooled human liver S9 fraction, 37 °C, read-out: Recovery of the molecule after incubation
Description: The S9 mix was composed of 5 mM glucose-6-phosphate (Ref. G7879, Batch no. SLBP253V, Sigma, France), 33.5 mM KCl (Ref. P3911, Batch no. SLBQ3328V, Sigma, France), 8 mM MgCl2 (Ref. M8266, Batch no. SLBK9099V, Sigma, France), 4 mM β-NADP (Ref. N5755, Batch no. SLBJ7935V, Sigma, France), and 100 mM NaH2PO4 (Ref. S3139, Batch no. BCBT3558, Sigma, France) in ultrapure water (Ref. BE51200, Batch no. BCBT3558, Lonza, France). Seventy-five microliters of human liver S9 fraction (Pooled Human Liver S9, 20 mg/ml, Ref. 452961, BD, France) was then added to 1380 µl of this S9 mix. The solution was warmed for 15 min at 37 °C in a thermostated water bath. The final protein concentration was 1 mg/ml after addition of working solutions.
The samples were then centrifuged and directly analyzed by LC–MS. The extraction efficiency was estimated at 97.2%. After extraction, the collected supernatants were directly injected into the HPLC system for analysis. Analysis was performed by MS to allow detection of potential metabolite(s).

Nc1nc(N)c2[nH]cnc2n1 [DAP, 2,6-diaminopurine]
Tumor size, average of 7 mice ([1]; measure 1 of 10 (time not given), DAP started when tumors about 0.4 cm^3): 0.002 cm^3 | Tumor size, average of 7 mice ([1]; measure 2 of 10 (time not given)): 0.02357 cm^3 | Tumor size, average of 7 mice ([1]; measure 3 of 10 (time not given)): 0.05086 cm^3 | Tumor size, average of 7 mice ([1]; measure 4 of 10 (time not given)): 0.07071 cm^3 | Tumor size, average of 7 mice ([1]; measure 5 of 10 (time not given)): 0.1153 cm^3 | Tumor size, average of 7 mice ([1]; measure 6 of 10 (time not given)): 0.1741 cm^3 | Tumor size, average of 7 mice ([1]; measure 7 of 10 (time not given)): 0.2344 cm^3 | Tumor size, average of 7 mice ([1]; measure 8 of 10 (time not given)): 0.3563 cm^3 | Tumor size, average of 7 mice ([1]; measure 9 of 10 (time not given)): 0.4617 cm^3 | Tumor size, average of 7 mice ([1]; measure 10 of 10 (time not given)): 0.5429 cm^3 | tumor size, Average ([2]; Calu-6, day 4, average of 7 mice): 0.07457 | tumor size, Average ([2]; Calu-6, day 6, average of 7 mice): 0.06657 | tumor size, Average ([2]; Calu-6, day 9, average of 7 mice): 0.067 | tumor size, Average ([2]; Calu-6, day 11, average of 7 mice): 0.05029 | tumor size, Average ([2]; Calu-6, day 13, average of 7 mice): 0.039 | tumor size, Average ([2]; Calu-6, day 16, average of 7 mice): 0.037 | tumor size, Average ([2]; Calu-6, day 18, average of 7 mice): 0.03471 | tumor size, Average ([2]; Calu-6, day 20, average of 7 mice): 0.06171 | tumor size, Average ([2]; Calu-6, day 23, average of 7 mice): 0.07814 | tumor size, Average ([2]; Calu-6, day 25, average of 7 mice): 0.06286 | tumor size, Average ([2]; Calu-6, day 27, average of 7 mice): 0.07829 | tumor size, Average ([2]; Calu-6, day 30, average of 7 mice): 0.09486 | tumor size, Average ([2]; Calu-6, day 32, average of 7 mice): 0.1364 | tumor size, Average ([2]; Calu-6, day 34, average of 7 mice): 0.1461 | tumor size, Average ([2]; Calu-6, day 37, average of 7 mice): 0.1584 | tumor size, Average ([2]; Calu-6, day 39, average of 7 mice): 0.2454 | tumor size, Average ([2]; Calu-6, day 41, average of 7 mice): 0.2229 | Tumor growth vs DMSO, in words ([2]; Calu-6, nude mice, force-fed daily, 5 weeks): strongly impaired tumor growth | Toxicity in a mouse model ([2]; mouse, in vivo, po): no detectable toxicity | Adenylate kinase activity in culture medium ([3]; DAP 0.39, 24 h, average): 387040 | Adenylate kinase activity in culture medium ([3]; DAP 0.39, 24 h, experiment 1): 426825 | Adenylate kinase activity in culture medium ([3]; DAP 0.39, 24 h, experiment 2): 354564 | Adenylate kinase activity in culture medium ([3]; DAP 0.39, 24 h, experiment 3): 379730 | Adenylate kinase activity in culture medium ([3]; DAP 0.78, 24 h, average): 423131 | Adenylate kinase activity in culture medium ([3]; DAP 0.78, 24 h, experiment 1): 391755 | Adenylate kinase activity in culture medium ([3]; DAP 0.78, 24 h, experiment 2): 521708 | Adenylate kinase activity in culture medium ([3]; DAP 0.78, 24 h, experiment 3): 355930 | Adenylate kinase activity in culture medium ([3]; DAP 100, 24 h, average): 360341 | Adenylate kinase activity in culture medium ([3]; DAP 100, 24 h, experiment 1): 374460 | Adenylate kinase activity in culture medium ([3]; DAP 100, 24 h, experiment 2): 518986 | Adenylate kinase activity in culture medium ([3]; DAP 100, 24 h, experiment 3): 187576 | Adenylate kinase activity in culture medium ([3]; DAP 300, 24 h, average): 386608 | Adenylate kinase activity in culture medium ([3]; DAP 300, 24 h, experiment 1): 380370 | Adenylate kinase activity in culture medium ([3]; DAP 300, 24 h, experiment 2): 536556 | Adenylate kinase activity in culture medium ([3]; DAP 300, 24 h, experiment 3): 242898 | Adenylate kinase activity in culture medium ([3]; DAP 600, 24 h, average): 369027 | Adenylate kinase activity in culture medium ([3]; DAP 600, 24 h, experiment 1): 393840 | Adenylate kinase activity in culture medium ([3]; DAP 600, 24 h, experiment 2): 349368 | Adenylate kinase activity in culture medium ([3]; DAP 600, 24 h, experiment 3): 363874 | Adenylate kinase activity in culture medium ([3]; DAP 1200, 24 h, average): 443419 | Adenylate kinase activity in culture medium ([3]; DAP 1200, 24 h, experiment 1): 462690 | Adenylate kinase activity in culture medium ([3]; DAP 1200, 24 h, experiment 2): 487071 | Adenylate kinase activity in culture medium ([3]; DAP 1200, 24 h, experiment 3): 380497 | Adenylate kinase activity in culture medium ([3]; DAP 2400, 24 h, average): 405551 | Adenylate kinase activity in culture medium ([3]; DAP 2400, 24 h, experiment 1): 480750 | Adenylate kinase activity in culture medium ([3]; DAP 2400, 24 h, experiment 2): 416958 | Adenylate kinase activity in culture medium ([3]; DAP 2400, 24 h, experiment 3): 318945 | 2′-O-methylation of tRNA^Trp at position 34 [4]: Notably affected | Cm32 methylation of tRNA^Gln [4]: reduced Cm32 methylation | Level of tRNA 2′-O-methylation [4]: significantly lower for three tRNAs | p53 protein in tumors (western blot) [5]: detected in tumors isolated from DAP-fed | Pearson correlation coefficient of proteome profiles DAP vs DMSO [6]: 0.94 | recovery at 4 h, 300 µM [7]: > 80%
